The values that follow come from patent US5462726A, “Method of inhibiting side effects of solvents containing ricinoleic acid or castor oil or derivatives thereof employing a thromboxane A2 receptor antagonist and pharmaceutical compositions containing such solvents” (priority 1993, dated 1995).

The target in test [1] is thromboxane A2 /prostaglandin endoperoxide receptor. The conditions noted are these: against U-46,619-induced force; rat aorta; Ogletree et al 1993; cited from earlier work.
For another test, the system named is jugular vein. The experiment in a line: Effect on ethanol-induced contraction of the jugular vein. The conditions noted are these: 0.1 or 1 μM BMS-180291; n=3. It counts as cell-based, rabbit.
Test [2] deals with T1, thromboxane A2 /prostaglandin endoperoxide receptor (Oryctolagus cuniculus, UniProt Q6WQI8).
T1 sequence (Q6WQI8 1-233): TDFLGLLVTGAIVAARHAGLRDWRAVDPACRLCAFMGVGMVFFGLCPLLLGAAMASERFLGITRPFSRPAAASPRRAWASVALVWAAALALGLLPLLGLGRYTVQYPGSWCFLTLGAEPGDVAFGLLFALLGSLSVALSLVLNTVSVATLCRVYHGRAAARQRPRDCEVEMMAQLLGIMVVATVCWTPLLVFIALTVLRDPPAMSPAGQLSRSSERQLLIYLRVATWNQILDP
The conditions noted are these: against U-46,619-induced force; rabbit aorta; S. Moreland, unpublished; cited from earlier work.

The test system of test [3] is U-46,619-evoked platelet shape change. The conditions noted are these: Ogletree et al 1993; cited from earlier work.
Test [4] deals with Cremophor-induced force in the aorta (thromboxane A2 receptors). The experiment in a line: Antagonism of Cremophor-induced force in the aorta. It counts as cell-based, rabbit. The method, then: Male New Zealand white rabbits were euthanized by intravenous barbiturate overdose. The thoracic aorta and the left and right external jugular veins were then removed into warm (37° C.) physiological salt solution (PSS) of the following composition (mM): NaCl, 118.4; KCl, 4.7; CaCl2, 2.5; MgSO4, 1.2; NaHCO3, 24.9; KH2 PO4, 1.2; glucose, 11.1 and EDTA, 0.023; gassed with 95% O2 /5% CO2, pH 7.4. The vessels were cleaned of fat and loose adventitia and subsequently cut into rings 3-4 mm in width. The endothelium was removed from the rings, unless otherwise indicated, by gently rotating a metal probe in the lumen of the ring. The rings were then suspended in water-jacketed (37° C.) 10 ml tissue baths between two wire holders, one of which was attached to a fixed hook and the other to an isometric force transducer. Resting tension was set at 4 g for the aorta and 1 g for the jugular vein. […]
(§1) Force (mean±S.E.) is expressed as a percentage of the corresponding bradykinin or phenylephrine reference response. KB values were determined by Schild analysis and KBapp by the following formula: KBapp =[antagonist]/agonist concentration ratio-1, where agonist concentration ratio=agonist EC50 measured in presence of antagonist/agonist EC50 measured in presence of vehicle. The statistical significance between means was determined using Student's t-test with p<0.05 considered statistically significant.

Test [5] concerns the target T1, thromboxane A2 /prostaglandin endoperoxide receptor. The test is described as follows: Antagonism of U-46,619-induced force in the jugular vein. It counts as cell-based. The note with it: rabbit jugular vein. On the procedure:
(§2) Male New Zealand white rabbits were euthanized by intravenous barbiturate overdose. The thoracic aorta and the left and right external jugular veins were then removed into warm (37° C.) physiological salt solution (PSS) of the following composition (mM): NaCl, 118.4; KCl, 4.7; CaCl2, 2.5; MgSO4, 1.2; NaHCO3, 24.9; KH2 PO4, 1.2; glucose, 11.1 and EDTA, 0.023; gassed with 95% O2 /5% CO2, pH 7.4. The vessels were cleaned of fat and loose adventitia and subsequently cut into rings 3-4 mm in width. The endothelium was removed from the rings, unless otherwise indicated, by gently rotating a metal probe in the lumen of the ring. The rings were then suspended in water-jacketed (37° C.) 10 ml tissue baths between two wire holders, one of which was attached to a fixed hook and the other to an isometric force transducer. Resting tension was set at 4 g for the aorta and 1 g for the jugular vein. The venous tissues were allowed to stabilize for a period of one hour and then challenged with a maximally effective concentration of bradykinin (1 μM) to evoke a tonic contracture. This response was used as a comparative reference response. Carbachol (1 μM) was introduced into the bath following stabilization of the bradykinin contracture to test for the presence of endothelium. […] The tissues were washed multiple times with fresh PSS and allowed to recover for one hour following complete relaxation from the previous bradykinin response. […] Inhibitors (enzyme or receptor) or their vehicle were introduced into the tissue bath 30 mins prior to the addition of stimulant. […]
as §1

Test [6] relates to ricinoleic acid-induced force in the jugular vein (thromboxane A2 receptors). The test is described as follows: Antagonism of ricinoleic acid-induced force in the jugular vein. It counts as cell-based, rabbit. The note with it: for Effect on ricinoleic acid-induced force (words): indomethacin, vein only. The method, then:
Male New Zealand white rabbits were euthanized by intravenous barbiturate overdose. The thoracic aorta and the left and right external jugular veins were then removed into warm (37° C.) physiological salt solution (PSS) of the following composition (mM): NaCl, 118.4; KCl, 4.7; CaCl2, 2.5; MgSO4, 1.2; NaHCO3, 24.9; KH2 PO4, 1.2; glucose, 11.1 and EDTA, 0.023; gassed with 95% O2 /5% CO2, pH 7.4. The vessels were cleaned of fat and loose adventitia and subsequently cut into rings 3-4 mm in width. The endothelium was removed from the rings, unless otherwise indicated, by gently rotating a metal probe in the lumen of the ring. The rings were then suspended in water-jacketed (37° C.) 10 ml tissue baths between two wire holders, one of which was attached to a fixed hook and the other to an isometric force transducer. Resting tension was set at 4 g for the aorta and 1 g for the jugular vein. The venous tissues were allowed to stabilize for a period of one hour and then challenged with a maximally effective concentration of bradykinin (1 μM) to evoke a tonic contracture. This response was used as a comparative reference response. Carbachol (1 μM) was introduced into the bath following stabilization of the bradykinin contracture to test for the presence of endothelium. […] The tissues were washed multiple times with fresh PSS and allowed to recover for one hour following complete relaxation from the previous bradykinin response. […] Inhibitors (enzyme or receptor) or their vehicle were introduced into the tissue bath 30 mins prior to the addition of stimulant. A similar procedure was followed for the aorta except the effects of carbachol (1 μM) were tested against a submaximal concentration of phenylephrine (0.3 μM) and 30 μM phenylephrine was used to establish a reference contracture.
(§3) Cremophor and ricinoleic acid (Sigma Chemical company) were also diluted in ethanol. […] Ricinoleic acid was diluted in ethanol to produce final bath concentrations of (μg/ml; final bath concentration of ethanol in parentheses): 0.1 (0.1%), 0.3 (0.3%), 1.0 (0.37%), 3.0 (0.57%), 10 (0.64%), 30 (0.84%). For reference, 0.1-30 μg/ml ricinoleic acid corresponds to a molar concentration range of 0.335-100.50 μM.
as §1

The target of test [7] is T2, ricinoleic acid-induced force in the aorta (thromboxane A2 receptors) (Oryctolagus cuniculus, UniProt Q6WQI8).
T2 sequence (Q6WQI8 1-233): T1 sequence (Q6WQI8 1-233)
The experiment in a line: Antagonism of ricinoleic acid-induced force in the aorta. It counts as cell-based, rabbit. On the procedure: as §2, §1

Test [8] has as its system U-46,619-induced platelet aggregation. The conditions noted are these: Ogletree et al 1993; cited from earlier work.
In test [9] the test system is Cremophor-induced force development in the jugular vein (thromboxane A2 receptors). The experiment in a line: Inhibition of Cremophor-induced force in the jugular vein. It counts as cell-based, rabbit. The note with it: for Effect on vasoconstrictor effects of Cremophor (words): indomethacin 10 μM. On the procedure: (§4) Male New Zealand white rabbits were euthanized by intravenous barbiturate overdose. The thoracic aorta and the left and right external jugular veins were then removed into warm (37° C.) physiological salt solution (PSS) of the following composition (mM): NaCl, 118.4; KCl, 4.7; CaCl2, 2.5; MgSO4, 1.2; NaHCO3, 24.9; KH2 PO4, 1.2; glucose, 11.1 and EDTA, 0.023; gassed with 95% O2 /5% CO2, pH 7.4. The vessels were cleaned of fat and loose adventitia and subsequently cut into rings 3-4 mm in width. The endothelium was removed from the rings, unless otherwise indicated, by gently rotating a metal probe in the lumen of the ring. The rings were then suspended in water-jacketed (37° C.) 10 ml tissue baths between two wire holders, one of which was attached to a fixed hook and the other to an isometric force transducer. Resting tension was set at 4 g for the aorta and 1 g for the jugular vein. The venous tissues were allowed to stabilize for a period of one hour and then challenged with a maximally effective concentration of bradykinin (1 μM) to evoke a tonic contracture. This response was used as a comparative reference response. Carbachol (1 μM) was introduced into the bath following stabilization of the bradykinin contracture to test for the presence of endothelium. […] The tissues were washed multiple times with fresh PSS and allowed to recover for one hour following complete relaxation from the previous bradykinin response. […] Inhibitors (enzyme or receptor) or their vehicle were introduced into the tissue bath 30 mins prior to the addition of stimulant.
as §3, §1

In a further test the target is thromboxane A2 receptor. The conditions noted are these: dog coronary artery, Cocks et al 1990; cited from earlier work.
Test [10] concerns the target T3, CsA-induced force development in the jugular vein (thromboxane A2 receptors) (Oryctolagus cuniculus, UniProt Q6WQI8).
T3 sequence (Q6WQI8 1-233): T1 sequence (Q6WQI8 1-233)
The experiment in a line: Inhibition of CsA-induced force in the jugular vein. It counts as cell-based, rabbit. The method, then: as §4, §3, §1

In the next test the test system is thromboxane A2 receptors. The experiment in a line: Potency of U-46,619 across rabbit jugular vein, rabbit aorta and rat aorta. It counts as cell-based. The note with it: rabbit aorta, rat aorta, present study and cited work.

Entries after “also recorded” stand apart in the source; their conditions may differ. Counter-ions that a name gives are not always drawn. Like-named read-outs stand apart in the source and are kept apart here.

In the case of `CCCCCNC(=O)c1coc(C2C3CCC(O3)C2Cc2ccccc2CCC(=O)O)n1` (stereo not drawn) [BMS-180291, [1S-[1α, 2α, 3α, 4α)]-2-[[3-[[4-(pentylamino)carbonyl]-2-oxazolyl]-7-oxabicyclo [2.2.1]hept-2-yl]-methyl]benzenepropanoic acid, sodium salt], the Kb is 0.6 nM in test [1]; 4 nM in test [2]; 6.4 nM in test [4] (Oryctolagus cuniculus, against Cremophor-induced force, assuming competitive antagonism, 0.03 μM BMS-180291 only, read-out: KBapp); 3.6 nM in test [5] (against U-46,619-induced force); 1.9 nM in test [6] (Oryctolagus cuniculus, against ricinoleic acid, vein, assuming competition, 0.03 and 0.1 μM BMS-180291 only, read-out: KBapp); 4.3 nM in [7] (against ricinoleic acid, rabbit aorta, assuming competition). In addition, the “Effect on contractile effects of ethanol” value in the test with jugular vein was “completely refractory”. For the same compound, the “Nature of antagonism of platelet shape change” value in test [3] is reported as “apparently competitive fashion”. The “Effect on Cremophor-induced force in the aorta” value in test [4] (BMS-180291) was “inhibited”. Besides, the Schild slope in [5] (against U-46,619-induced force) was 1.0; in test [7] (against ricinoleic acid, rabbit aorta), 0.70. The “Nature of antagonism of U-46,619-induced force” value in test [5] (sodium salt) was “apparently competitive antagonist”. Also, the “Antagonism of ricinoleic acid-induced force” value in test [6] (vein) and in test [7] (aorta) was “concentration-dependent antagonism” throughout. For the same compound, in test [8], the “Nature of inhibition of platelet aggregation” value is listed as “apparently non-competitive fashion”. The inhibition at 0.1 µM in test [9] (Oryctolagus cuniculus, 0.1 μM BMS-180291, Cremophor 39 μg/ml, n=4, read-out: Relaxation of Cremophor-precontracted jugular vein) was 85.6 ± 3.9%. Further, the “Nature of antagonism of Cremophor-induced responses” value in test [9] (preincubation with BMS-180291 (10-300 nM), sodium salt) is “consistent with non-competitive antagonism; also recorded: apparently non-competitive fashion”.

As for `COc1ccc(Cl)cc1C(=O)NCCc1ccc(S(=O)(=O)NC(=O)NC2CCCCC2)cc1` [glyburide], the Kb on thromboxane A2 receptor is 600 nM; in test [10] (against CsA-induced force, Schild analysis, read-out: KB) it was 600 nM; in [10] (against CsA-induced force, glyburide 10 μM, n=4, read-out: KBapp) it was 1500 nM; in test [9] (Oryctolagus cuniculus, against Cremophor-induced force, glyburide 10 μM, n=3, read-out: KBapp) it was 900 nM. The same compound registered a Schild slope in [10] (against CsA-induced force) of 0.7. For the same compound, the inhibition at 10 µM in test [10] (read-out: Inhibition (reversal) of CsA-induced contraction) stood at 57.1%.

On to `CCCCCC(O)C=CC1C2CC(CO2)C1CC=CCCCC(=O)O` (stereo not shown) [U-46,619, 11,9-epoxymethano-PGH2], for which the “Potency across the three tissues” value with thromboxane A2 receptors is “approximately equal potency in all three tissues”.

As to `COc1ccc2c(c1)c(CC(=O)O)c(C)n2C(=O)c1ccc(Cl)cc1` [indomethacin], the “Effect on ricinoleic acid-induced force (words)” value in test [6] is listed as “The contractile effects of neither ricinoleic acid nor Cremophor were prevented”; in test [6] (listed as Indomethacin), “no significant effect on ricinoleic acid-induced force”. In addition, the “Effect on vasoconstrictor effects of Cremophor (words)” value in [9] was “The contractile effects of neither ricinoleic acid nor Cremophor were prevented”; in [9] (listed as Indomethacin), “failed to significantly inhibit the vasoconstrictor effects of Cremophor”.
